Test system: Stress protein genes
Assay: DNA chip mRNA expression in yeast, stress protein genes (Table 6)
Assay type: cell-based, Saccharomyces cerevisiae S288C
Summary of the method: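 Chemical exposure: 2 h, log-phase S. cerevisiae S288C, YPD, 25° C., dose set to inhibit growth without death. Profiling: mRNA labeled by reverse transcription with Cy3- or Cy5-dUTP, hybridized to whole-genome array. Output: fluorescence ratio against untreated culture.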

## Na2As [(1)]
Yeast gene YAL005C
  The level of expressed mRNA in the presence of chemical substance/The level of expressed mRNA in the absence of chemical substance: 0.6
Yeast gene YAL015C
  The level of expressed mRNA in the presence of chemical substance/The level of expressed mRNA in the absence of chemical substance: 1.2
Yeast gene YBL075C
  The level of expressed mRNA in the presence of chemical substance/The level of expressed mRNA in the absence of chemical substance: 1.3
Yeast gene YBL093C
  The level of expressed mRNA in the presence of chemical substance/The level of expressed mRNA in the absence of chemical substance: 1.0
Yeast gene YBR044C
  The level of expressed mRNA in the presence of chemical substance/The level of expressed mRNA in the absence of chemical substance: 0.8
Yeast gene YBR054W
  The level of expressed mRNA in the presence of chemical substance/The level of expressed mRNA in the absence of chemical substance: 1.9
Yeast gene YBR067C
  The level of expressed mRNA in the presence of chemical substance/The level of expressed mRNA in the absence of chemical substance: 1.6
Yeast gene YBR072W
  The level of expressed mRNA in the presence of chemical substance/The level of expressed mRNA in the absence of chemical substance: 18.5
Yeast gene YBR126C
  The level of expressed mRNA in the presence of chemical substance/The level of expressed mRNA in the absence of chemical substance: 0.8
Yeast gene YBR169C
  The level of expressed mRNA in the presence of chemical substance/The level of expressed mRNA in the absence of chemical substance: 1.0
Yeast gene YCL035C
  The level of expressed mRNA in the presence of chemical substance/The level of expressed mRNA in the absence of chemical substance: 2.0
Yeast gene YCR021C
  The level of expressed mRNA in the presence of chemical substance/The level of expressed mRNA in the absence of chemical substance: 5.2
Yeast gene YCR083W
  The level of expressed mRNA in the presence of chemical substance/The level of expressed mRNA in the absence of chemical substance: 1.1
Yeast gene YDL022W
  The level of expressed mRNA in the presence of chemical substance/The level of expressed mRNA in the absence of chemical substance: 0.9
Yeast gene YDL025C
  The level of expressed mRNA in the presence of chemical substance/The level of expressed mRNA in the absence of chemical substance: 1.7
Yeast gene YDR033W
  The level of expressed mRNA in the presence of chemical substance/The level of expressed mRNA in the absence of chemical substance: 1.1
Yeast gene YDR077W
  The level of expressed mRNA in the presence of chemical substance/The level of expressed mRNA in the absence of chemical substance: 1.2
Yeast gene YDR098C
  The level of expressed mRNA in the presence of chemical substance/The level of expressed mRNA in the absence of chemical substance: 0.8
Yeast gene YDR155C
  The level of expressed mRNA in the presence of chemical substance/The level of expressed mRNA in the absence of chemical substance: 1.1
Yeast gene YDR258C
  The level of expressed mRNA in the presence of chemical substance/The level of expressed mRNA in the absence of chemical substance: 1.6
Yeast gene YDR293C
  The level of expressed mRNA in the presence of chemical substance/The level of expressed mRNA in the absence of chemical substance: 0.9
Yeast gene YDR436W
  The level of expressed mRNA in the presence of chemical substance/The level of expressed mRNA in the absence of chemical substance: 0.9
Yeast gene YDR513W
  The level of expressed mRNA in the presence of chemical substance/The level of expressed mRNA in the absence of chemical substance: 2.2
Yeast gene YDR519W
  The level of expressed mRNA in the presence of chemical substance/The level of expressed mRNA in the absence of chemical substance: 1.3
Yeast gene YEL030W
  The level of expressed mRNA in the presence of chemical substance/The level of expressed mRNA in the absence of chemical substance: 0.7
Yeast gene YEL039C
  The level of expressed mRNA in the presence of chemical substance/The level of expressed mRNA in the absence of chemical substance: 1.1
Yeast gene YER042W
  The level of expressed mRNA in the presence of chemical substance/The level of expressed mRNA in the absence of chemical substance: 3.0
Yeast gene YER057C
  The level of expressed mRNA in the presence of chemical substance/The level of expressed mRNA in the absence of chemical substance: 1.2
Yeast gene YER103W
  The level of expressed mRNA in the presence of chemical substance/The level of expressed mRNA in the absence of chemical substance: 0.7
Yeast gene YER125W
  The level of expressed mRNA in the presence of chemical substance/The level of expressed mRNA in the absence of chemical substance: 0.6
Yeast gene YFL014W
  The level of expressed mRNA in the presence of chemical substance/The level of expressed mRNA in the absence of chemical substance: 3.4
Yeast gene YFL016C
  The level of expressed mRNA in the presence of chemical substance/The level of expressed mRNA in the absence of chemical substance: 0.8
Yeast gene YFL020C
  The level of expressed mRNA in the presence of chemical substance/The level of expressed mRNA in the absence of chemical substance: 1.0
Yeast gene YFR052W
  The level of expressed mRNA in the presence of chemical substance/The level of expressed mRNA in the absence of chemical substance: 1.1
Yeast gene YGL073W
  The level of expressed mRNA in the presence of chemical substance/The level of expressed mRNA in the absence of chemical substance: 1.0
Yeast gene YGL115W
  The level of expressed mRNA in the presence of chemical substance/The level of expressed mRNA in the absence of chemical substance: 0.9
Yeast gene YGL181W
  The level of expressed mRNA in the presence of chemical substance/The level of expressed mRNA in the absence of chemical substance: 0.9
Yeast gene YGR088W
  The level of expressed mRNA in the presence of chemical substance/The level of expressed mRNA in the absence of chemical substance: 1.3
Yeast gene YHL028W
  The level of expressed mRNA in the presence of chemical substance/The level of expressed mRNA in the absence of chemical substance: 0.7
Yeast gene YHL046C
  The level of expressed mRNA in the presence of chemical substance/The level of expressed mRNA in the absence of chemical substance: 1.1
Yeast gene YHR030C
  The level of expressed mRNA in the presence of chemical substance/The level of expressed mRNA in the absence of chemical substance: 2.1
Yeast gene YHR057C
  The level of expressed mRNA in the presence of chemical substance/The level of expressed mRNA in the absence of chemical substance: 1.1
Yeast gene YHR104W
  The level of expressed mRNA in the presence of chemical substance/The level of expressed mRNA in the absence of chemical substance: 1.0
Yeast gene YIL011W
  The level of expressed mRNA in the presence of chemical substance/The level of expressed mRNA in the absence of chemical substance: 0.7
Yeast gene YIL033C
  The level of expressed mRNA in the presence of chemical substance/The level of expressed mRNA in the absence of chemical substance: 0.8
Yeast gene YIR037W
  The level of expressed mRNA in the presence of chemical substance/The level of expressed mRNA in the absence of chemical substance: 1.4
Yeast gene YIR038C
  The level of expressed mRNA in the presence of chemical substance/The level of expressed mRNA in the absence of chemical substance: 1.3
Yeast gene YJL128C
  The level of expressed mRNA in the presence of chemical substance/The level of expressed mRNA in the absence of chemical substance: 0.8
Yeast gene YJL158C
  The level of expressed mRNA in the presence of chemical substance/The level of expressed mRNA in the absence of chemical substance: 0.9
Yeast gene YJL159W
  The level of expressed mRNA in the presence of chemical substance/The level of expressed mRNA in the absence of chemical substance: 1.0
Yeast gene YJL165C
  The level of expressed mRNA in the presence of chemical substance/The level of expressed mRNA in the absence of chemical substance: 1.0
Yeast gene YJR045C
  The level of expressed mRNA in the presence of chemical substance/The level of expressed mRNA in the absence of chemical substance: 0.5
Yeast gene YJR090C
  The level of expressed mRNA in the presence of chemical substance/The level of expressed mRNA in the absence of chemical substance: 0.8
Yeast gene YKL161C
  The level of expressed mRNA in the presence of chemical substance/The level of expressed mRNA in the absence of chemical substance: 4.2
Yeast gene YKL163W
  The level of expressed mRNA in the presence of chemical substance/The level of expressed mRNA in the absence of chemical substance: 1.1
Yeast gene YKL164C
  The level of expressed mRNA in the presence of chemical substance/The level of expressed mRNA in the absence of chemical substance: 0.6
Yeast gene YKL210W
  The level of expressed mRNA in the presence of chemical substance/The level of expressed mRNA in the absence of chemical substance: 0.5
Yeast gene YKR053C
  The level of expressed mRNA in the presence of chemical substance/The level of expressed mRNA in the absence of chemical substance: 0.9
Yeast gene YLL024C
  The level of expressed mRNA in the presence of chemical substance/The level of expressed mRNA in the absence of chemical substance: 0.5
Yeast gene YLL026W
  The level of expressed mRNA in the presence of chemical substance/The level of expressed mRNA in the absence of chemical substance: 1.8
Yeast gene YLL039C
  The level of expressed mRNA in the presence of chemical substance/The level of expressed mRNA in the absence of chemical substance: 1.1
Yeast gene YLL060C
  The level of expressed mRNA in the presence of chemical substance/The level of expressed mRNA in the absence of chemical substance: 12.5
Yeast gene YLR006C
  The level of expressed mRNA in the presence of chemical substance/The level of expressed mRNA in the absence of chemical substance: 0.7
Yeast gene YLR109W
  The level of expressed mRNA in the presence of chemical substance/The level of expressed mRNA in the absence of chemical substance: 0.8
Yeast gene YLR259C
  The level of expressed mRNA in the presence of chemical substance/The level of expressed mRNA in the absence of chemical substance: 0.7
Yeast gene YML007W
  The level of expressed mRNA in the presence of chemical substance/The level of expressed mRNA in the absence of chemical substance: 0.9
Yeast gene YML070W
  The level of expressed mRNA in the presence of chemical substance/The level of expressed mRNA in the absence of chemical substance: 0.9
Yeast gene YMR021C
  The level of expressed mRNA in the presence of chemical substance/The level of expressed mRNA in the absence of chemical substance: 1.0
Yeast gene YMR173W
  The level of expressed mRNA in the presence of chemical substance/The level of expressed mRNA in the absence of chemical substance: 1.5
Yeast gene YMR186W
  The level of expressed mRNA in the presence of chemical substance/The level of expressed mRNA in the absence of chemical substance: 0.6
Yeast gene YNL064C
  The level of expressed mRNA in the presence of chemical substance/The level of expressed mRNA in the absence of chemical substance: 0.9
Yeast gene YNL160W
  The level of expressed mRNA in the presence of chemical substance/The level of expressed mRNA in the absence of chemical substance: 2.1
Yeast gene YNL241C
  The level of expressed mRNA in the presence of chemical substance/The level of expressed mRNA in the absence of chemical substance: 1.3
Yeast gene YNR076W
  The level of expressed mRNA in the presence of chemical substance/The level of expressed mRNA in the absence of chemical substance: 1.3
Yeast gene YOL064C
  The level of expressed mRNA in the presence of chemical substance/The level of expressed mRNA in the absence of chemical substance: 1.4
Yeast gene YOL161C
  The level of expressed mRNA in the presence of chemical substance/The level of expressed mRNA in the absence of chemical substance: 1.2
Yeast gene YOR008C
  The level of expressed mRNA in the presence of chemical substance/The level of expressed mRNA in the absence of chemical substance: 0.7
Yeast gene YOR009W
  The level of expressed mRNA in the presence of chemical substance/The level of expressed mRNA in the absence of chemical substance: 0.9
Yeast gene YOR010C
  The level of expressed mRNA in the presence of chemical substance/The level of expressed mRNA in the absence of chemical substance: 0.7
Yeast gene YOR027W
  The level of expressed mRNA in the presence of chemical substance/The level of expressed mRNA in the absence of chemical substance: 0.7
Yeast gene YOR208W
  The level of expressed mRNA in the presence of chemical substance/The level of expressed mRNA in the absence of chemical substance: 1.3
Yeast gene YPL059W
  The level of expressed mRNA in the presence of chemical substance/The level of expressed mRNA in the absence of chemical substance: 1.2
Yeast gene YPL106C
  The level of expressed mRNA in the presence of chemical substance/The level of expressed mRNA in the absence of chemical substance: 0.6
Yeast gene YPL140C
  The level of expressed mRNA in the presence of chemical substance/The level of expressed mRNA in the absence of chemical substance: 0.9
Yeast gene YPL194W
  The level of expressed mRNA in the presence of chemical substance/The level of expressed mRNA in the absence of chemical substance: 0.9
Yeast gene YPL223C
  The level of expressed mRNA in the presence of chemical substance/The level of expressed mRNA in the absence of chemical substance: 4.8
Yeast gene YPL240C
  The level of expressed mRNA in the presence of chemical substance/The level of expressed mRNA in the absence of chemical substance: 0.7
Yeast gene YPR005C
  The level of expressed mRNA in the presence of chemical substance/The level of expressed mRNA in the absence of chemical substance: 1.3
Yeast gene YPR026W
  The level of expressed mRNA in the presence of chemical substance/The level of expressed mRNA in the absence of chemical substance: 0.9

— patent publication US8192962B2, “Processes for detecting toxic substances” (Daikin Industries, Ltd., priority 2001, dated 2012)
